From US20200246284A1 (Academia Sinica, priority 2015, published 2020)
Where “and” joins values, the source holds several entries; their conditions need not be identical. Equal values may be shown once.

How the values were obtained:
[1] = test system: HCC15; assay type: cell-based, human
[2] = test system: H249; assay: Cytotoxicity SCLC 72 hr alamar blue; assay type: cell-based, human
[3] = test system: EBC1; assay type: cell-based, human
[4] = test system: H69; assay: Cytotoxicity SCLC 72 hr alamar blue; assay type: cell-based, human
[5] = test system: H678; assay: Cytotoxicity SCLC 72 hr alamar blue; assay type: cell-based, human
[6] = test system: H226; assay type: cell-based, human
[7] = test system: BEAS2B SV40 bronchial epithelium; assay type: cell-based, human
[8] = test system: H526; assay: Cytotoxicity SCLC 72 hr alamar blue; assay type: cell-based, human
[9] = test system: H520; assay type: cell-based, human
[10] = test system: H1650; assay type: cell-based, human
[11] = test system: H841; assay: Cytotoxicity SCLC 72 hr alamar blue; assay type: cell-based, human
[12] = test system: PC9; assay type: cell-based, human
[13] = test system: PC1 (jap); assay type: cell-based, human
[14] = test system: SK-MES-1; assay type: cell-based, human
[15] = test system: H1666; assay type: cell-based, human
[16] = test system: MOR; assay: Cytotoxicity NSCLC; assay type: cell-based, human
[17] = test system: CL97; assay type: cell-based, human
[18] = test system: H23; assay type: cell-based, human
[19] = test system: H647; assay type: cell-based, human
[20] = test system: Karpas-422; details: human
Description: (§1) After 72 hours, the cultures were pulsed with Alamar Blue overnight, and the fluorescent intensity of resulted cultures was measured by a Synergy H1 plate-reader (BioTek Inc).

[21] = test system: AML cell lines; assay: Cytotoxicity, panel of AML cell lines; assay type: cell-based, human
Description: Human cord blood CD34+ cells transduced with MLL-AF9 gene: MA-10, MA-18. Human bone marrow CD34+ cells transduced with MLL-AF9 gene: MA-23. Human cord blood CD34+ cells transduced with MLL-AF9 and N-ras genes: MA-9.3, MA-9.6. • b) Growth factor independent leukemic cell lines. Human MA-10 cells transduced with Flt3 ITD (W51) were adapted to in vitro proliferation without growth factors (Moore Laboratory).

[22] = test system: MA-10-W51; assay: Cytotoxicity leukemia; assay type: cell-based, human; details: growth factor dependent MA-10-W51
Description: Human cord blood CD34+ cells transduced with MLL-AF9 gene: MA-10, MA-18. Human bone marrow CD34+ cells transduced with MLL-AF9 gene: MA-23. Human cord blood CD34+ cells transduced with MLL-AF9 and N-ras genes: MA-9.3, […] ).

[23] = test system: Z-138; assay: Combination with BO-1055, MCL (Tables 28, 29); assay type: cell-based, human; details: read-out: IC50 single drug
[24] = test system: Mino; assay: Combination with BO-1055, MCL (Tables 28, 29); assay type: cell-based, human; details: read-out: IC50 single drug
[25] = test system: AML-2 CD34+ cells in NSG mice; assay: Primary MLL-AF9+ pediatric AML (AML-2) xenograft; assay type: in vivo, mouse; details: 30 mg/kg Q10D2x from day 7
[26] = biological target: P-glycoprotein (P-gp) (Homo sapiens, UniProt P08183); assay: P-gp mediated efflux in Caco-2 monolayers
[27] = test system: Ly19; assay: cells; details: Homo sapiens, read-out: cytotoxicity IC50
[28] = test system: LY1; details: human
Description: as §1

[29] = test system: primary Pre-B-ALL cells in NSG mice; assay: Primary pre-B-ALL xenograft; assay type: in vivo, mouse; details: Q10D2x from day 7
[30] = test system: SUDHL-4; details: human
Description: as §1

[31] = test system: H526 xenograft; assay: SCLC H526 xenograft in nude mice; assay type: in vivo, mouse; details: 40 mg/kg i.v.
[32] = test system: Z-138; assay: Cytotoxicity mantle cell lymphoma
Description: as §1

[33] = test system: SHP77; assay: Cytotoxicity LCLC/SCLC; assay type: cell-based, human
[34] = test system: Ly3 (OCI-LY3); details: human
Description: as §1

[35] = test system: NECB-1; assay: Cytotoxicity mantle cell lymphoma; details: read-out: cytotoxicity IC50; NECB-1, mantle cell lymphoma
Description: as §1

[36] = test system: OP9 calvarial stroma; assay: Cytotoxicity normal tissue 72 hr; assay type: cell-based; details: OP9 (mouse)
[37] = test system: JEKO-1; details: human
Description: as §1

[38] = in vitro; details: human, plasma

Chain of P-glycoprotein (P-gp) (P08183 whole entry): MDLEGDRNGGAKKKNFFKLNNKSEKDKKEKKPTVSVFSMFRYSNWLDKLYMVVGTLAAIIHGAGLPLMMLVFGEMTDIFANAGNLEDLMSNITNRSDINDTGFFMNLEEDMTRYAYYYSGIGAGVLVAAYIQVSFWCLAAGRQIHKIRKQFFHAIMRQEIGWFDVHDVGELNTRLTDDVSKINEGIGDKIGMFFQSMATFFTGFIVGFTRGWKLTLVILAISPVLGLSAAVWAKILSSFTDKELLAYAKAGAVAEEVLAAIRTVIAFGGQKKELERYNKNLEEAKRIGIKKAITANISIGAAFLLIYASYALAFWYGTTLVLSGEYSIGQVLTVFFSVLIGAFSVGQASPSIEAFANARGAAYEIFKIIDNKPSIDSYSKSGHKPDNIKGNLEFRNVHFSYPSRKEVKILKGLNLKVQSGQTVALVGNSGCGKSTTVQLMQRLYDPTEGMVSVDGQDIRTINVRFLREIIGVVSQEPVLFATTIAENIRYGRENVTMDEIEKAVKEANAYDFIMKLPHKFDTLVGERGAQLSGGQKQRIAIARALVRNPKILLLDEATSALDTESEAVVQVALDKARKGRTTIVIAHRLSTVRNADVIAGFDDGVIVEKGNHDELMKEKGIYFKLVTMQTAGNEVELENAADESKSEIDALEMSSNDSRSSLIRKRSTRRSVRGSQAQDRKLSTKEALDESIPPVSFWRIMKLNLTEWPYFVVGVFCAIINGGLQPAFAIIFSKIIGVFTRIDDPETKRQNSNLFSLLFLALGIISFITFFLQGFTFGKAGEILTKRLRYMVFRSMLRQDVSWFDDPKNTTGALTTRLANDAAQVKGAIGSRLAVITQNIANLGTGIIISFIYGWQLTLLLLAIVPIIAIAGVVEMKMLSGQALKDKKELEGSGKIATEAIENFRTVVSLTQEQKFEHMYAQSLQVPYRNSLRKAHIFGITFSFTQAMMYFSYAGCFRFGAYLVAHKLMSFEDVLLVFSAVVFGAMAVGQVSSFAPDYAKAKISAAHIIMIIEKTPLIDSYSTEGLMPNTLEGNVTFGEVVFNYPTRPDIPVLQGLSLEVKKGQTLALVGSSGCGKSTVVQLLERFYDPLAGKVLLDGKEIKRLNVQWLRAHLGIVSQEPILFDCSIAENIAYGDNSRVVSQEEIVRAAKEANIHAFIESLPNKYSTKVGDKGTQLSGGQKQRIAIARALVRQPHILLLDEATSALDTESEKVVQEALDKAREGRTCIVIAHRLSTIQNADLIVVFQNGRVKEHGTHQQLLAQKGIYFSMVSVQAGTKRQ

Question: With N.N.[Cl][Pt][Cl] [Cisplatin] as the compound, how does the IC50 [1] read?
Answer: ≥ 85 µM

Question: And the IC50 [2]?
Answer: 1.51 µM

Question: What about the IC50 [3] of the same compound?
Answer: ≥ 100 µM

Question: What about the IC50 [4] of the same compound?
Answer: 3.42 µM

Question: What about the IC50 [5] of the same compound?
Answer: 3.81 µM

Question: And the IC50 [6]?
Answer: 2.9 µM

Question: And the IC50 [7]?
Answer: 4.1 µM

Question: What about the IC50 [8] of the same compound?
Answer: 2.85 µM

Question: What about the IC50 [9] of the same compound?
Answer: 9.1 µM

Question: And the IC50 [10]?
Answer: 7.51 µM

Question: And the IC50 [11]?
Answer: ≥ 20 µM

Question: And the IC50 [12]?
Answer: 8.12 µM

Question: What about the IC50 [13] of the same compound?
Answer: ≥ 20 µM

Question: What about the IC50 [14] of the same compound?
Answer: ≥ 50 µM

Question: And the IC50 [15]?
Answer: ≥ 20 µM

Question: And the IC50 [16]?
Answer: 3.9 µM

Question: What about the IC50 [17] of the same compound?
Answer: < 15 µM

Question: What about the IC50 [18] of the same compound?
Answer: 2.5 µM

Question: What about the IC50 [19] of the same compound?
Answer: 8.75 µM

Question: Which results are given for CN(C)CCNC(=O)c1cccc(NC(=O)Nc2ccc(N(CCCl)CCCl)cc2)c1 [BO-1055, Ureidomustine]?
Answer: IC50 [20]: 5.85 µM; IC50 ([21]; Homo sapiens, THP1 and MOLM13): 0.18 to 0.45 µM; increase of cytotoxicity by MLL-AF9 ([21]; MLL-AF9 transduced vs normal CB or BM CD34+): 25-40 fold; cytotoxicity, dose titration (FIG. 9) [22]: highly cytotoxic; IC50 [23]: 0.299 µM and 0.303 µM and 0.301 µM; IC50 [24]: 0.115 µM and 0.105 µM and 0.101 µM; survival longer than control [25]: 48 days; P-gp assessment [26]: Possible P-gp liabilities; IC50 [27]: 0.29 µM; IC50 [28]: 3.86 µM; reduction of tumor growth [29]: 2 log; survival longer than control [29]: ~100 days; IC50 [30]: 1.95 µM; complete remission (CR) ([31]; 28 d): 3/4; complete remission (CR) ([31]; 32 d): 2/4; complete remission (CR) ([31]; 77 d): 1/4; IC50 ([32]; read-out: cytotoxicity IC50, Z-138, mantle cell lymphoma): 0.3 µM; IC50 ([32]; read-out: mean IC50±SD, Z-138): 0.182 ± 0.15 µM; IC50 [33]: 40 µM; IC50 [34]: 3.5 µM; IC50 [35]: 7.71 µM and 8.41 µM; IC50 [36]: ≥ 10 µM; IC50 [37]: 0.27 µM; fraction unbound [38]: 0.01; fraction unbound at 2 h [38]: 0.01
